{"source": "patent US10787462B2", "about": "“Heterocyclic compound” (TAKEDA PHARMACEUTICAL COMPANY LIMITED, priority 2015, dated 2020)"}
{"target": "T1, human RIPK1 (1-375) (Homo sapiens, UniProt Q13546)", "T1 construct": "human RIPK1 (1-375) gene; GST; made in house; host or cells: Sf-9 insect cells", "T1 sequence (Q13546 1-375)": "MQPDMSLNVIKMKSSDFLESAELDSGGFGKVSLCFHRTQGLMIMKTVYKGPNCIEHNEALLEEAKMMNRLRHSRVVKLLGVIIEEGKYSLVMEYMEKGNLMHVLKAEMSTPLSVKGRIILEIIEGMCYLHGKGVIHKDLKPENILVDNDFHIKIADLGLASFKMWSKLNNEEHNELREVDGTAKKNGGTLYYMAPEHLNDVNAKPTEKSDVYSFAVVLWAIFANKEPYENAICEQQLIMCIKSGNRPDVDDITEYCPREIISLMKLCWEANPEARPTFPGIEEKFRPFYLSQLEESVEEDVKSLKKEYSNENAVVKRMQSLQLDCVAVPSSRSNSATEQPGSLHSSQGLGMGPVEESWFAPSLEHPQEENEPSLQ", "assay": "Human RIPK1 enzyme inhibitory effect (ADP-Glo Kinase Assay)", "assay_type": "biochemical", "settings": "10 μM test compound; well without enzyme = 100% inhibition; 10 µM", "method_in_brief": "(§1)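 Human RIPK1 (1-375), GST-purified from Sf-9 cells, preincubated 20 min at room temperature with compound in 25 mM HEPES pH 7.5, 10 mM MgCl2, 0.01% Tween-20, 2 mM DTT. Reaction started with 0.6 mM ATP solution (stock), run 120 min at room temperature. ADP measured by ADP-Glo luminescence.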", "units": {"human RIPK1 enzyme inhibitory effect at 10 μM (% inhibition)": "%"}}
{"smiles": "CN1C(=O)C(N2CCc3c(nn(Cc4c(F)cccc4F)c3Cl)C2=O)CCc2c1cnn2C", "note": "(stereo not shown) [Example 134, 6-(3-chloro-2-(2,6-difluorobenzyl)-7-oxo-2,4,5,7-tetrahydro-6H-pyrazolo[3,4-c]pyridin-6-yl)-1,4-dimethyl-4,6,7,8-tetrahydropyrazolo[4,3-b]azepin-5(1H)-one]", "human RIPK1 enzyme inhibitory effect at 10 μM (% inhibition)": 93}
{"smiles": "CNC(=O)c1ccc2c(c1)CCC(N1CCc3c(nn(Cc4ccccc4)c3Cl)C1=O)C(=O)N2C", "note": "(stereo not shown) [Example 136, 3-(2-benzyl-3-chloro-7-oxo-2,4,5,7-tetrahydro-6H-pyrazolo[3,4-c]pyridin-6-yl)-N,1-dimethyl-2-oxo-2,3,4,5-tetrahydro-1H-1-benzazepine-7-carboxamide]", "human RIPK1 enzyme inhibitory effect at 10 μM (% inhibition)": 101}
{"smiles": "CNC(=O)c1ccc2c(c1)CCC(N1CCc3c(nn(Cc4ccccc4)c3Cl)C1=O)C(=O)N2C", "note": "(stereo not shown) [Example 137, 3-(2-benzyl-3-chloro-7-oxo-2,4,5,7-tetrahydro-6H-pyrazolo[3,4-c]pyridin-6-yl)-N,1-dimethyl-2-oxo-2,3,4,5-tetrahydro-1H-1-benzazepine-7-carboxamide]", "human RIPK1 enzyme inhibitory effect at 10 μM (% inhibition)": 87}
{"target": "T1, human RIPK1 (1-375)", "assay": "Human RIPK1 enzyme inhibitory effect (ADP-Glo Kinase Assay)", "assay_type": "biochemical", "settings": "read-out: human RIPK1 enzyme inhibitory effect at 10 μM (% inhibition), 10 μM test compound; well without enzyme = 100% inhibition", "method_in_brief": "as §1", "units": {"inhibition at 10 µM": "%"}}
{"smiles": "CNC(=O)c1ccc2c(c1)CCC(N1CCc3c(nn(Cc4ccccc4)c3Cl)C1=O)C(=O)N2C", "note": "(stereo not shown) [Example 135, 3-(2-benzyl-3-chloro-7-oxo-2,4,5,7-tetrahydro-6H-pyrazolo[3,4-c]pyridin-6-yl)-N,1-dimethyl-2-oxo-2,3,4,5-tetrahydro-1H-1-benzazepine-7-carboxamide]", "inhibition at 10 µM": 101}
{"smiles": "CN1C(=O)[C@@H](N2CCc3cn(Cc4ccccc4F)nc3C2=O)COc2ccc(Br)cc21", "note": "[Example 138, (3S)-7-bromo-3-(2-(2-fluorobenzyl)-7-oxo-2,4,5,7-tetrahydro-6H-pyrazolo[3,4-c]pyridin-6-yl)-5-methyl-2,3-dihydro-1,5-benzoxazepin-4(5H)-one]", "inhibition at 10 µM": 101}
{"smiles": "CN1C(=O)[C@@H](N2CCc3c(nn(Cc4ccccc4)c3Cl)C2=O)COc2cc(-c3ncco3)ccc21", "note": "[Example 139, (3S)-3-(2-benzyl-3-chloro-7-oxo-2,4,5,7-tetrahydro-6H-pyrazolo[3,4-c]pyridin-6-yl)-5-methyl-8-(1,3-oxazol-2-yl)-2,3-dihydro-1,5-benzoxazepin-4(5H)-one]", "inhibition at 10 µM": 100}
{"smiles": "CN1C(=O)[C@@H](N2CCc3c(nn(Cc4ccccc4)c3Cl)C2=O)COc2cc(-c3cn[nH]c3)ccc21", "note": "[Example 140, (3S)-3-(2-benzyl-3-chloro-7-oxo-2,4,5,7-tetrahydro-6H-pyrazolo[3,4-c]pyridin-6-yl)-5-methyl-8-(1H-pyrazol-4-yl)-2,3-dihydro-1,5-benzoxazepin-4(5H)-one]", "inhibition at 10 µM": 102}
{"smiles": "COCc1ccc2c(c1)OC[C@H](N1CCc3c(nn(Cc4ccccc4)c3Cl)C1=O)C(=O)N2C", "note": "[Example 141, (3S)-3-(2-benzyl-3-chloro-7-oxo-2,4,5,7-tetrahydro-6H-pyrazolo[3,4-c]pyridin-6-yl)-8-(methoxymethyl)-5-methyl-2,3-dihydro-1,5-benzoxazepin-4(5H)-one]", "inhibition at 10 µM": 100}
{"smiles": "CN1C(=O)[C@@H](N2CCc3c(nn(Cc4ccccc4)c3Cl)C2=O)COc2cc(N3CCOCC3)ccc21", "note": "[Example 142, (3S)-3-(2-benzyl-3-chloro-7-oxo-2,4,5,7-tetrahydro-6H-pyrazolo[3,4-c]pyridin-6-yl)-5-methyl-8-(morpholin-4-yl)-2,3-dihydro-1,5-benzoxazepin-4(5H)-one]", "inhibition at 10 µM": 100}
{"smiles": "CN1C(=O)[C@@H](N2CCc3c(nn(Cc4cnccn4)c3Cl)C2=O)COc2ccc(F)cc21", "note": "[Example 143, (3S)-3-(3-chloro-7-oxo-2-(pyrazin-2-ylmethyl)-2,4,5,7-tetrahydro-6H-pyrazolo[3,4-c]pyridin-6-yl)-7-fluoro-5-methyl-2,3-dihydro-1,5-benzoxazepin-4(5H)-one]", "inhibition at 10 µM": 100}
{"smiles": "O=C1Nc2cc(Cl)ccc2OC[C@@H]1N1CCc2c(nn(Cc3ccccc3)c2Cl)C1=O", "note": "[Example 144, (3S)-3-(2-benzyl-3-chloro-7-oxo-2,4,5,7-tetrahydro-6H-pyrazolo[3,4-c]pyridin-6-yl)-7-chloro-2,3-dihydro-1,5-benzoxazepin-4(5H)-one]", "inhibition at 10 µM": 100}
{"smiles": "CN1C(=O)[C@@H](N2CCc3c(nn(Cc4ccccc4)c3Cl)C2=O)COc2ccc(C#N)cc21", "note": "[Example 145, (3S)-3-(2-benzyl-3-chloro-7-oxo-2,4,5,7-tetrahydro-6H-pyrazolo[3,4-c]pyridin-6-yl)-5-methyl-4-oxo-2,3,4,5-tetrahydro-1,5-benzoxazepine-7-carbonitrile]", "inhibition at 10 µM": 101}
{"smiles": "CN1C(=O)[C@@H](N2CCc3c(nn(Cc4cnccn4)c3Cl)C2=O)COc2cc(Cl)ccc21", "note": "[Example 146, (3S)-8-chloro-3-(3-chloro-7-oxo-2-(pyrazin-2-ylmethyl)-2,4,5,7-tetrahydro-6H-pyrazolo[3,4-c]pyridin-6-yl)-5-methyl-2,3-dihydro-1,5-benzoxazepin-4(5H)-one]", "inhibition at 10 µM": 101}
{"smiles": "CCNC(=O)c1ccc2c(c1)OC[C@H](N1CCc3c(nn(Cc4ccccc4)c3Cl)C1=O)C(=O)N2C", "note": "[Example 147, (3S)-3-(2-benzyl-3-chloro-7-oxo-2,4,5,7-tetrahydro-6H-pyrazolo[3,4-c]pyridin-6-yl)-N-ethyl-5-methyl-4-oxo-2,3,4,5-tetrahydro-1,5-benzoxazepine-8-carboxamide]", "inhibition at 10 µM": 100}
{"smiles": "CN1C(=O)[C@@H](N2CCc3c(nn(Cc4ccccc4)c3Cl)C2=O)COc2cc(C(=O)NCCOCCOCCOCCOc3ccc4ccccc4c3)ccc21", "note": "[Example 148, (3S)-3-(2-benzyl-3-chloro-7-oxo-2,4,5,7-tetrahydro-6H-pyrazolo[3,4-c]pyridin-6-yl)-5-methyl-N-(2-(2-(2-(2-(2-naphthyloxy)ethoxy)ethoxy)ethoxy)ethyl)-4-oxo-2,3,4,5-tetrahydro-1,5-benzoxazepine-8-carboxamide]", "inhibition at 10 µM": 101}
{"smiles": "CN1C(=O)[C@@H](N2CCc3cn(Cc4ccc(Cl)cc4)nc3C2=O)CSc2ccccc21", "note": "[Example 150, (3R)-3-(2-(4-chlorobenzyl)-7-oxo-2,4,5,7-tetrahydro-6H-pyrazolo[3,4-c]pyridin-6-yl)-5-methyl-2,3-dihydro-1,5-benzothiazepin-4(5H)-one]", "inhibition at 10 µM": 99}
{"smiles": "CN1C[C@H](N2CCc3cn(Cc4ccccc4)nc3C2=O)C(=O)N(C)c2ccccc21", "note": "[Example 151, (3S)-3-(2-benzyl-7-oxo-2,4,5,7-tetrahydro-6H-pyrazolo[3,4-c]pyridin-6-yl)-1,5-dimethyl-1,3,4,5-tetrahydro-2H-1,5-benzodiazepin-2-one]", "inhibition at 10 µM": 98}
{"smiles": "CN1C(=O)[C@@H](N2CCc3cn(Cc4ccccc4)nc3C2=O)COc2cc(F)ccc21", "note": "[Example 152, (3S)-3-(2-benzyl-7-oxo-2,4,5,7-tetrahydro-6H-pyrazolo[3,4-c]pyridin-6-yl)-8-fluoro-5-methyl-2,3-dihydro-1,5-benzoxazepin-4(5H)-one]", "inhibition at 10 µM": 99}
{"smiles": "CN1C(=O)[C@@H](N2CCc3cn(Cc4cccnc4)nc3C2=O)COc2ccccc21", "note": "[Example 153, (3S)-5-methyl-3-(7-oxo-2-(pyridin-3-ylmethyl)-2,4,5,7-tetrahydro-6H-pyrazolo[3,4-c]pyridin-6-yl)-2,3-dihydro-1,5-benzoxazepin-4(5H)-one]", "inhibition at 10 µM": 95}
{"smiles": "CN1C(=O)[C@@H](N2CCc3cn(CC4(C)COC4)nc3C2=O)COc2ccccc21", "note": "[Example 154, (3S)-5-methyl-3-(2-((3-methyloxetan-3-yl)methyl)-7-oxo-2,4,5,7-tetrahydro-6H-pyrazolo[3,4-c]pyridin-6-yl)-2,3-dihydro-1,5-benzoxazepin-4(5H)-one]", "inhibition at 10 µM": 78}
{"smiles": "COc1cccc(Cn2cc3c(n2)C(=O)N([C@H]2COc4ccccc4N(C)C2=O)CC3)c1", "note": "[Example 155, (3S)-3-(2-(3-methoxybenzyl)-7-oxo-2,4,5,7-tetrahydro-6H-pyrazolo[3,4-c]pyridin-6-yl)-5-methyl-2,3-dihydro-1,5-benzoxazepin-4(5H)-one]", "inhibition at 10 µM": 97}
{"smiles": "CN1C(=O)[C@@H](N2CCc3cn(Cc4cccc(F)c4)nc3C2=O)CSc2ccccc21", "note": "[Example 156, (3R)-3-(2-(3-fluorobenzyl)-7-oxo-2,4,5,7-tetrahydro-6H-pyrazolo[3,4-c]pyridin-6-yl)-5-methyl-2,3-dihydro-1,5-benzothiazepin-4(5H)-one]", "inhibition at 10 µM": 97}
{"smiles": "CN1C(=O)[C@@H](N2CCc3cn(Cc4ccc(F)cc4)nc3C2=O)COc2ccccc21", "note": "[Example 157, (3S)-3-(2-(4-fluorobenzyl)-7-oxo-2,4,5,7-tetrahydro-6H-pyrazolo[3,4-c]pyridin-6-yl)-5-methyl-2,3-dihydro-1,5-benzoxazepin-4(5H)-one]", "inhibition at 10 µM": 95}
{"smiles": "CN1C(=O)[C@@H](N2CCc3cn(Cc4cccc(F)c4)nc3C2=O)COc2ccccc21", "note": "[Example 158, (3S)-3-(2-(3-fluorobenzyl)-7-oxo-2,4,5,7-tetrahydro-6H-pyrazolo[3,4-c]pyridin-6-yl)-5-methyl-2,3-dihydro-1,5-benzoxazepin-4(5H)-one]", "inhibition at 10 µM": 99}
{"smiles": "CN1C(=O)[C@@H](N2CCc3c(nn(Cc4ccccc4)c3C3CC3)C2=O)COc2ccccc21", "note": "[Example 159, (3S)-3-(2-benzyl-3-cyclopropyl-7-oxo-2,4,5,7-tetrahydro-6H-pyrazolo[3,4-c]pyridin-6-yl)-5-methyl-2,3-dihydro-1,5-benzoxazepin-4(5H)-one]", "inhibition at 10 µM": 100}
